From patent EP0415456A2, “Xanthine compounds” (priority 1989, dated 1991)

Assays:
male dd-strain mice = assay: acute toxicity test; type: in vivo
Procedure: […]. The Minimum lethal dose (MLD) of the compounds was determined by observing whether or not the mice were alive after 7 days of the administration.

Adenosine A₁ Receptor = biological target: T1, Adenosine A₁ Receptor (Cavia porcellus, UniProt P47745); assay: Adenosine A1 receptor binding (3H-CHA binding); design: species or system guinea pig; conditions: for Ratio of Ki Values [A₂/A₁]: A₂ Ki (rat corpus striatum) / A₁ Ki (guinea pig cerebrum); for Ki: calculated from Cheng-Prusoff's equation, ³H-CHA; for Ki / inhibition at 100 µM / inhibition at 10 µM: guinea pig cerebrum; for inhibition at 100 µM: concentration of tested compound 10⁻⁴ M; for inhibition at 100 µM / inhibition at 10 µM: ³H-CHA 1.1 nM; for inhibition at 10 µM: concentration of tested compound 10⁻⁵ M
T1 construct: from tissue; host or cells: guinea pig cerebrum membrane preparation
T1 sequence (P47745 1-326): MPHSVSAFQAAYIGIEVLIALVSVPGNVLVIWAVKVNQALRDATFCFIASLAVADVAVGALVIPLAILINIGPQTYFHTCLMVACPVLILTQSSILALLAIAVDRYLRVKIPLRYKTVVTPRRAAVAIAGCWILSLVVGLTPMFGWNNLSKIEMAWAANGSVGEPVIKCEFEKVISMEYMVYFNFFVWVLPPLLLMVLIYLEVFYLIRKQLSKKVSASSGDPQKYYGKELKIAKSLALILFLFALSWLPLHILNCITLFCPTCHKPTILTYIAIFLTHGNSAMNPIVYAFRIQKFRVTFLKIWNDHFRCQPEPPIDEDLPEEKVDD
Procedure: Cerebrum of a guinea pig was suspended into ice cooled 50 mM tris hydroxymethyl aminomethane hydrochloride (Tris HCl) buffer (pH = 7.7), by using Polytron homogenizer (manufactured by Kinematica Co.). The suspension was centrifuged (50,000 x g, 10 minutes), and the precipitate was resuspended by adding the same volume of 50 mM Tris HCl buffer. The suspension was centrifuged under the same conditions, and the precipitate obtained was suspended once again by adding 10 volumes of 50 mM Tris HCl. The tissue suspension was incubated at 37°C for 30 minutes in the presence of 0.02 units/mg tissue of adenosine deaminase (manufactured by Sigma Co.). The resulting tissue suspension was recentrifuged (50,000 x g, 10 minutes), and 50 mM Tris HCl was added to the precipitate to adjust the concentration of tissue to 10 mg (wet weight)/mℓ.
The mixture was incubated at 25°C for 90 minutes, and the resulting reaction was stopped by rapid vacuum filtration through a glass fiber filter (GF/C manufactured by Whatman Co.) followed by immediately washing three times with 5 mℓ each of ice cold 50 mM Tris HCl buffer. […] Its radioactivity was then determined by a scintillation counter (manufactured by Packard Instrument Co.).
The inhibition rate of the test compounds against the binding of A₁ […] (³H-CHA binding) was calculated from the following equation: [formula]
• 1. […] The inhibition constant (Ki value) shown in the table was calculated from Cheng-Prusoff's equation.

A₂ receptor = biological target: T2, A₂ receptor (Rattus norvegicus, UniProt P30543); assay: Adenosine A2 receptor binding (3H-NECA binding); conditions: for inhibition at 10 µM / inhibition at 100 µM: read-out: A₂ Receptor Inhibition (%); for Ki: ³H-NECA with CPA, rat corpus striatum, read-out: A₂ Receptor Ki
T2 construct: A precipitate was prepared from rat corpus striatum; from tissue; host or cells: rat corpus striatum membrane preparation
T2 sequence (P30543 whole entry): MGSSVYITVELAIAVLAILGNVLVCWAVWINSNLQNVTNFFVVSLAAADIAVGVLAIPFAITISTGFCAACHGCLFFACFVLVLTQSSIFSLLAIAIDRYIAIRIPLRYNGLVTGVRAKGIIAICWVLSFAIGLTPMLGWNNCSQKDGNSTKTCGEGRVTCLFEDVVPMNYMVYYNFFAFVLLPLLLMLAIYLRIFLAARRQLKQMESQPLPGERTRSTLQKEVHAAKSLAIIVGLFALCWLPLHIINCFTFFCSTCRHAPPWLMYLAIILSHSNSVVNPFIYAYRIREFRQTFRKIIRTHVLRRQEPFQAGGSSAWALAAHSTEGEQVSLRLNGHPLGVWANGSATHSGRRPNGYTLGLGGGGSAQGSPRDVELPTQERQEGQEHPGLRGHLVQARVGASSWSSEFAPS
Procedure: A precipitate was prepared from rat corpus striatum in a similar manner as in 1) above. The precipitate was suspended by adding a 50 mM Tris HCl buffer containing 10 mM magnesium chloride and 0.02 unit/mg (tissue) of adenosine deaminase (manufactured by Sigma Co.) to adjust the concentration of tissue to 5 mg (wet weight)/mℓ.
The mixture was incubated at 25°C within 120 minutes. The resulting mixture was treated in the same manner as in 1) above to determine its radioactivity.
The inhibition rate of the test compound against the binding of A₂ receptor (³H-NECA binding) was calculated from the following equation: [formula]

Wistar rats = assay: diuretic effect; type: in vivo; conditions: 25 mg/kg oral, urine collected for 6 hours; for Increase in K⁺ excretion (%) / Increase in Na⁺excretion (%) / Increase in Urine (%): relative to control; for Na⁺/K⁺: relative value of control (control 1.00)
Procedure: Wistar rats (male: 150 - 300 g) were starved for 18 hours prior to the administration of the test compounds. […] Urine was collected for 6 hours after the administration. Urine volume was measured and the electrolytes (Na+ and K+) in the urine were determined with a flame photome[…], Hitachi Ltd., Japan). All parameters are expressed as relative values of control.

[1] = tested on: glycerol-induced renal failure model; assay: renal-protecting effect (glycerol-induced renal failure model); type: in vivo; conditions: male Wistar rats; for suppression of increases of the serum creatinine and of urine-nitrogen: 0.01 - 10 mg/kg i.p., 24 hours after 50% glycerol s.c. (p < 0.05); for pathological examination of removed kidneys: state of kidneys: i.p., left kidney removed 24 hours after 50% glycerol s.c.
Procedure: A renal failure is a state wherein the renal function is lowered and the homeostasis of a body fluid can be no more maintained. It is known that an acute renal failure characteristic of uriniferous tubule disorder is caused by subcutaneous or intramuscular injection of glycerol to rats [Can. J. Physiol.
Male Wistar rats were kept deprived or water for 18 hours, and served for the test. A test compound was intraperitoneally administered to the rats (dosage: 1 mℓ/kg) and the rats were anesthetized with ether and 50% glycerol was subcutaneously administered (dosage: 0.8mℓ/100g) to the rats, pinching the dorsal skin. Twenty four hours after the administration of glycerol, the rats were anesthetized with ether and 5 mℓ of blood were collected from the abdominal aorta. The collected blood was allowed to stand for 30 minutes or longer and then centrifuged at 3,000 rpm for 10 minutes, and the amounts of the serum creatinine and urine-nitrogen (UN) contained in the serum were determined by auto analyzer (Olympus AU510) or measured by a creatinine test Wako (Jaffé method) and UN Test Wako (diacetylmonooxime direct method). Both are manufactured by Wako Pure Chemicals Co.
On the other hand, the left kidneys of the blood-sampled rats were removed and placed in formalin-filled vial bottles, and used as samples for the pathological examination.

[2] = 300 mg/kg orally administered, male dd-strain mice, observed 7 days after administration

SMILES	Minimum lethal dose (MLD) (male dd-strain mice; mouse, in vivo, 10080 min)	Ratio of Ki Values [A₂/A₁] (Adenosine A₁ Receptor)	Ki (Adenosine A₁ Receptor) [nM]	inhibition at 100 µM (Adenosine A₁ Receptor) [%]	inhibition at 10 µM (Adenosine A₁ Receptor) [%]	inhibition at 10 µM (A₂ receptor) [%]	inhibition at 100 µM (A₂ receptor) [%]	Ki (A₂ receptor) [nM]	Increase in K⁺ excretion (%) (Wistar rats)	Increase in Na⁺excretion (%) (Wistar rats)	Increase in Urine (%) (Wistar rats)	Na⁺/K⁺ (Wistar rats)	suppression of increases of the serum creatinine and of urine-nitrogen [1]	pathological examination of removed kidneys: state of kidneys [1]	Minimum lethal dose (MLD) (male dd-strain mice; [2])
CCCn1c(=O)c2[nH]c([C@H]3C[C@@H]4C=C[C@@H]3C4)nc2n(CCC)c1=O (relative stereo) [Compound 1, 8-[(1R*,4S*,5S*)-2-Bicyclo[2.2.1]hepten-5-yl]-1,3-dipropylxanthine]	more than 300 mg/kg	92.7	5.5	99	99	88	97	510	36	73	106	1.27	–	–	–
CCCn1c(=O)c2[nH]c([C@@H]3C[C@@H]4C=C[C@@H]3C4)nc2n(CCC)c1=O (relative stereo) [Compound 2, 8-[(1R*,4S*,5R*)-2-bicyclo[2.2.1]hepten-5-yl]-1,3-dipropylxanthine]	more than 300 mg/kg	–	–	–	–	–	–	–	67	109	87	1.25	–	–	–
CCCn1c(=O)c2[nH]c([C@H]3C[C@H]4CC[C@@H]3C4)nc2n(CCC)c1=O (relative stereo) [Compound 3, 8-[(1R*,2S*,5S*)-Bicyclo[2,2,1]heptan-2-yl]-1,3-dipropylxanthine]	more than 300 mg/kg	75.0	4.4	100	100	83	90	330	29	137	154	1.84	–	–	–
CCCn1c(=O)c2[nH]c([C@@H]3CC[C@H]4CCC[C@H]43)nc2n(CCC)c1=O (relative stereo) [Compound 5, 8-[(1R*,2R*,5R*)-Bicyclo[3.3.0]octan-2-yl]-1,3-dipropylxanthine]	more than 300 mg/kg	86.8	3.8	99	99	91	99	330	32	109	88	1.58	–	–	–
CCCn1c(=O)c2c(nc([C@H]3C[C@@H]4C=C[C@@H]3C4)n2C)n(CCC)c1=O (relative stereo) [Compound 17, 8-[(1R*,4S*, 5S*)-2-Bicyclo[2.2.1]hepten-5-yl]-1,3-dipropyl-7-methylxanthine]	more than 300 mg/kg	–	–	–	–	–	–	–	51	107	155	1.37	significantly suppressed	significantly improved	–
CCCn1c(=O)[nH]c(=O)c2[nH]c([C@@H]3CC[C@H]4CCC[C@H]43)nc21 (relative stereo) [Compound 23, 8-[(1R*,2R*,5R*)-Bicyclo[3.3.0]octan-2-yl]-3-propylxanthine]	–	–	–	–	–	–	–	–	–	–	–	–	significantly suppressed	significantly improved	more than 300 mg/kg
CCCn1c(=O)c2[nH]c([C@@H]3CC[C@H]4CCC[C@H]43)nc2n(CCC)c1=S (relative stereo) [Compound 24, 8-[(1R*,2R*,5R*)-Bicyclo[3.3.0]octan-2-yl]-1,3-dipropyl-2-thioxanthine]	–	–	–	–	–	–	–	–	61	125	112	1.40	–	–	more than 300 mg/kg
CCCn1c(=O)c2nc(C3CC4CCC3C4)[nH]c2n(CCC)c1=O (stereo not drawn) [Compound 4, 8-[(1R*,2R*,5S*)-bicyclo[2.2.1)heptan-2-yl]-1,3-dipropylxanthine]	more than 300 mg/kg	–	–	–	–	–	–	–	27	106	113	1.63	–	–	–
CCCn1c(=O)c2[nH]c(Cc3csc(N)n3)nc2n(CCC)c1=O [Compound 12, 8-(2-Aminothiazol-4-yl)methyl-1,3-dipropylxanthine]	–	–	–	–	–	–	–	–	32	103	108	1.54	–	–	300 mg/kg
CCCn1c(=O)c2c(nc(C34CC5CC(CC3C5)C4)n2C)n(CCC)c1=O [Compound 20, 1,3-Dipropyl-7-methyl-8-(noradamantan-3-yl)xanthine]	–	–	–	–	–	–	–	–	–	–	–	–	–	–	more than 300 mg/kg
CCCn1c(=O)c2nc(C34CC5CC(CC3C5)C4)[nH]c2n(CCC)c1=S [Compound 31, 8-(Noradamantan-3-yl)-1,3-dipropyl-2-thioxanthine]	more than 300 mg/kg	–	–	–	–	–	–	–	56	126	115	1.44	significantly suppressed	significantly improved	–
CCCn1c(=S)c2[nH]c(C34CC5CC(CC3C5)C4)nc2n(CCC)c1=O [Compound 32, 8-(Noradamantan-3-yl)-1,3-dipropyl-6-thioxanthine]	more than 300 mg/kg	–	–	–	–	–	–	–	41	114	100	1.51	–	–	–
CCCn1c(=S)c2[nH]c(C34CC5CC(CC3C5)C4)nc2n(CCC)c1=S [Compound 33, 8-(Noradamantan-3-yl)-1,3-dipropyl-2,6-dithioxanthine]	more than 300 mg/kg	–	–	–	–	–	–	–	40	105	99	1.47	–	–	–
